Patent US20130109664A1 (priority 2011, published 2013)
Like-named read-outs stand apart in the source and are kept apart here.

Key:
Malassezia furfur = test: Intrinsic anti-Malassezia potency, growth inhibition by optical density; type: cell-based; settings: for IC50: M. furfur in mDixon medium, overnight at 31°, OD 600 nm; for independent anti-fungal effectiveness (in words): comment on Table 1 data
Experimental: To measure the growth inhibition properties of test materials against Malassezia, we carried out the following protocol.
Starting cultures are prepared by incubating with shaking at 31°. Cells (5 ml of culture) are collected by centrifugation and suspended in 50 ml fresh mDixon medium. […] The plates are shaken vigorously on a Heidolph Titramax 100 overnight at 31°. To increase the humidity, water-soaked cotton batting is placed over the plates.
As a control, the optical density of untreated M. furfur is measured after overnight incubation. As another control, the optical density of the starting culture is measured. The difference between these optical densities represents the amount of growth of M. furfur.

[1] = cited from earlier work
M. furfur 7982 = test: Fractional Inhibitor Concentration (FIC) of chelator in combination with ZPT; type: cell-based, Malassezia furfur; settings: average of duplicate plates, 2 days at 33° C., ≦0.5 synergistic, >0.5-1.0 additive
Source text: Fractional Inhibitor Concentration (FIC) is a conventional methodology for evaluating antimicrobial interactions. In an embodiment of the present invention, an FIC is used to determine combinatorial effects of two chemicals on anti-Malassezia activity in a tissue culture setting.
• 1. Each FIC assay is run in duplicate. • 2. Low levels of M. furfur 7982 cells are inoculated into each well of a 96 well plate. • 3. Chemical #1 (in our assays, this is always ZPT) is titrated (2× concentration reductions) from right to left across each row of the plate, starting at 12.5 ppm final concentration and ending at 0 ppm. • 4. […] Plates are incubated at 33° C., 60% RH for 2 days with agitation. • 6. Optical densities (OD's) are then determined using a spectrophotometer.
• 1. […] Lack of inhibition of growth is determined if the OD>0.6, and the well is labeled with a ‘+’. • 3. The lowest concentration value of chemical #1, both by itself and with the lowest concentration of chemical #1 which boosts chemical #2's potency, that inhibit growth are determined (see FIG. 1). • 4. Likewise, the lowest concentration of chemical #2, both by itself and with the lowest concentration of chemical #2 that boosts chemical #1's potency, that inhibit growth are determined (see FIG. 1). • 5. The FIC value for the duplicate plates is determined using the calculations below:
[formula] [formula] • 6. The average FIC value is then determined, and the combinatorial effect of the two chemicals is classified according to the chart below: […]

[2] = Iron affinity, stepwise association constant log K1; type: physicochemical
Source text: The strength of the association between a ligand and metal, in this case iron, can be termed iron affinity.
The affinity constant is conveniently expressed as the logarithm (log K1) and the larger the magnitude of this number, the stronger the association between the metal (iron ions in this case) and ligand.

[3] = source (a) NIST Standard Reference Database 46
[4] = (e) interpolated from correlation between Cu2+ and Fe2+ data
[5] = (c) interpolated from correlation between Zn2+ and Fe2+ data
[6] = (d) interpolated from correlation between Fe3+ and Fe2+ data
[7] = source (b) IUPAC Stability Constant Database

Compound: O=C(O)CN(CC(=O)O)[C@@H]1CCCC[C@H]1N(CC(=O)O)CC(=O)O (relative stereo) [trans-1,2-Cyclohexylenedinitrilotetraacetic acid]
- IC50 (Malassezia furfur): 500 µM
- Iron Affinity, log K1 Fe2+, pH = 7.4 [1, 3]: 14.0

Compound: Cc1c([O-])c(=O)ccn1C.Cc1c([O-])c(=O)ccn1C.[Zn+2] [1,2-Dimethyl-3-hydroxy-4-pyridone, Zinc salt]
- FIC (Fractional Inhibitory Concentration) (M. furfur 7982): 0.5

Compound: C1CNCCNCCNCCNCCNCCN1 [1,4,7,10,13,16-Hexaazacyclooctadecane]
- Iron Affinity, log K1 Fe2+, pH = 7.4 [2, 4]: 13.3

Compound: O=C(O)CN1CCCN(CC(=O)O)CCN(CC(=O)O)CCCN(CC(=O)O)CC1 [1,4,8,11-Tetraazacyclotetradecane-N,N′,N″,N″′-tetraacetic acid]
- IC50 (Malassezia furfur): > 500 µM
- Iron Affinity, log K1 Fe2+, pH = 7.4 [1, 3]: 9.9

Compound: S=C(N=Nc1ccccc1)NNc1ccccc1 [1,5-Diphenyl-1,2,4,5-tetraazapent-1-en-3-thione]
- Iron Affinity, log K1 Fe2+, pH = 7.4 [1, 3]: 6.5

Compound: c1cnc2c(c1)ccc1cccnc12 [1,10-Phenanthroline]
- Iron Affinity, log K1 Fe2+, pH = 7.4 [1, 3]: 5.9

Compound: Oc1ccc2ccccc2c1N=Nc1nccs1 [1-(2-Thiazoylazo)-2-naphthol]
- Iron Affinity, log K1 Fe2+, pH = 7.4 [2, 5]: 6.6
- IC50 (Malassezia furfur): 250 µM

Compound: CC(C)c1cccc(O)c(=O)c1 [1-Hydroxy-4-(1-methylethyl)cyclohepta-3,5,7-trien-2-one]
- Iron Affinity, log K1 Fe2+, pH = 7.4 [2, 5]: 4.9
- IC50 (Malassezia furfur; Malassezia furfur): 65 µM

Compound: c1ccc(-c2cccc(-c3ccccn3)n2)nc1 [2,2′: 6′,2″-terpyridine]
- Iron Affinity, log K1 Fe2+, pH = 7.4 [2, 5]: 5.0

Compound: Cc1ccc2ccc3ccc(C)nc3c2n1 [2,9-dimethyl-1,10-phenanthroline]
- Iron Affinity, log K1 Fe2+, pH = 7.4 [2, 5]: 3.3

Compound: NCCc1ccccn1 [2-(2-aminoethyl)-pyridine]
- Iron Affinity, log K1 Fe2+, pH = 7.4 [2, 6]: 5.2

Compound: Cc1c(O)c(=O)ccn1C [3-Hydroxy-1,2-dimethyl-4(1H)-pyridone]
- Iron Affinity, log K1 Fe2+, pH = 7.4 [2, 5]: 3.9

Compound: Oc1ccc(N=Nc2nccs2)c(O)c1 [4-(2-thiazolylazo)-resorcinol]
- Iron Affinity, log K1 Fe2+, pH = 7.4 [1, 3]: 3.2

Compound: Oc1c(Cl)cc(Cl)c2cccnc12 [5,7-dichloro-8-hydroxyquinoline]
- Iron Affinity, log K1 Fe2+, pH = 7.4 [1, 7]: 7.2

Compound: Oc1c(I)cc(Cl)c2cccnc12 [5-Chloro-8-hydroxy-7-iodoquinoline]
- Iron Affinity, log K1 Fe2+, pH = 7.4 [1, 7]: 7.0

Compound: Oc1cccc2cccnc12 [8-hydroxyquinoline]
- Iron Affinity, log K1 Fe2+, pH = 7.4 [2, 5]: 4.9

Compound: O=C(O)CN(CCN(CC(=O)O)CC(=O)O)CC(=O)O [Ethylenediaminetetraacetic acid]
- IC50 (Malassezia furfur; Malassezia furfur): > 500 µM
- independent anti-fungal effectiveness (in words) (Malassezia furfur): not to be effective

Compound: CCC(NCCNC(CC)C(=O)O)C(=O)O (stereo not shown) [Ethylenediiminodi-2-butanoic acid]
- Iron Affinity, log K1 Fe2+, pH = 7.4 [2, 5]: 6.3
- IC50 (Malassezia furfur): > 500 µM

Compound: c1ccc(CN(CCN(Cc2ccccn2)Cc2ccccn2)Cc2ccccn2)nc1 [N,N,N′,N-tetrakis(2-pyridylmethyl) ethylenediamine]
- IC50 (Malassezia furfur): 71 µM
- Iron Affinity, log K1 Fe2+, pH = 7.4 [1, 3]: 14.2

Compound: O=C(O)CN(CCO)CCO [N,N-Bis(2-hydroxyethyl)glycine]
- Iron Affinity, log K1 Fe2+, pH = 7.4 [2, 5]: 3.6

Compound: O=C1c2cccc3cccc(c23)C(=O)N1O [N,N-Naphthaloylhydroxylamine]
- FIC (Fractional Inhibitory Concentration) (M. furfur 7982): 0.8

Compound: CCCCCCCCOc1cccc(=O)n1O.NCCO [N-Hydroxy-6-octyloxypyridine-2(1H)one, ethanolamine salt]
- Iron Affinity, log K1 Fe2+, pH = 7.4 [2, 6]: 5.4
- IC50 (Malassezia furfur): 54.6 µM
- FIC (Fractional Inhibitory Concentration) (M. furfur 7982): 0.62

Compound: CCCCCCCCOc1cccc(=O)n1[O-].CCCCCCCCOc1cccc(=O)n1[O-].[Zn+2] [N-Hydroxy-6-octyloxypyridine-2(1H)one, zinc salt]
- FIC (Fractional Inhibitory Concentration) (M. furfur 7982): 0.7

Compound: O=C(O)c1ccccc1O [Salicylic acid]
- Iron Affinity, log K1 Fe2+, pH = 7.4 [2, 4]: −3.0
- IC50 (Malassezia furfur; Malassezia furfur): > 500 µM

Compound: Cc1occc(=S)c1O [Thiomaltol]
- FIC (Fractional Inhibitory Concentration) (M. furfur 7982): 0.8

Compound: [O-]n1ccccc1=S.[O-]n1ccccc1=S.[Zn+2] [Zinc Pyrithione, zinc salt of 1-hydroxy-2-pyridinethione]
- Iron Affinity, log K1 Fe2+, pH = 7.4 [2, 5]: 4.3

Compound: NCCC(=O)N[C@@H](Cc1c[nH]cn1)C(=O)O [beta-Alanyl-L-histidine]
- Iron Affinity, log K1 Fe2+, pH = 7.4 [2, 5]: 1.3

Compound: O=c1cc(CO)occ1O [kojic acid]
- Iron Affinity, log K1 Fe2+, pH = 7.4 [2, 5]: 3.7

Compound: Cc1occc(=O)c1O [maltol]
- Iron Affinity, log K1 Fe2+, pH = 7.4 [2, 5]: 6.4
- independent anti-fungal effectiveness (in words) (Malassezia furfur): too hydrophilic to be an effective anti-fungal material independently

Compound: Benzohydroxamic acid, Zinc Salt
- FIC (Fractional Inhibitory Concentration) (M. furfur 7982): 0.3

Compound: Maltol, Zinc salt
- FIC (Fractional Inhibitory Concentration) (M. furfur 7982): 0.1

Compound: Thiomaltol, Zinc salt
- FIC (Fractional Inhibitory Concentration) (M. furfur 7982): 0.5
